# The source made the active and inactive calls. For most assays here, no stated cut-off is given here; in the data, actives have a measured EC50 and inactives only a lower limit.
# Legend:
# [1] = biological target: T1, Ubiquitin-conjugating enzyme E2 N (Homo sapiens, UniProt P61088); format: functional;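 further: Dose-response confirmation in a TR-FRET assay detecting UBC13-driven polyubiquitin chain formation, inhibition measured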
# T1 sequence (P61088 whole entry): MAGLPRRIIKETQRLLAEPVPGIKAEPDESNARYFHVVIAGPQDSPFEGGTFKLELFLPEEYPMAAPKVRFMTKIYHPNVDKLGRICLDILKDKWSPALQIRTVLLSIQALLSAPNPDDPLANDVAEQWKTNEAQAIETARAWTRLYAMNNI
# [2] = Luminescence Cell-Based Dose Confirmation HTS to Identify Inhibitors of Platelet Dense Granule Release. [Related pubchem assays: 1663 (Primary HTS), 1678 (Summary of Project)]; format: functional
# [3] = biological target: Luciferin 4-monooxygenase (Photinus pyralis, UniProt P08659); assay: firefly luciferase enzyme inhibitors, dose response, biochemical, luminescence (AID 1891)
# [4] = biological target: FAD-linked sulfhydryl oxidase ALR (Homo sapiens, UniProt P55789); assay: inhibitors of human ALR sulfhydryl oxidase, dose response, biochemical, H2O2 detection, luminescence, cherry-pick (AID 493248)
# [5] = C. albicans growth with fluconazole, confirmation, fluorescence, retest (AID 2467); format: functional, cell-based
# [6] = NIH-3T3 fibroblast cytotoxicity, dose response, cytotoxicity control, cell-based, fluorescence, Alamar Blue, secondary assay (AID 2327); format: functional;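 further: NIH-3T3 mouse fibroblasts cultured with fluconazole at 8 µg/mL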
# [7] = biological target: T2, Polyadenylate-binding protein 1 (Homo sapiens, UniProt P11940); assay: PABP1 MLLE–PAM2 binding inhibitor potency, dose response, biochemical, fluorescence polarization, FITC-PAM2 peptide (AID 602259); format: functional; settings: read-out: IC50_Mean
# [8] = Luminescence Cell-Based Dose Retest to Confirm Inhibitors of Cancer Stem Cells. [Related pubchem assays (depositor defined):AID2717, AID2721]; format: functional; settings: Homo sapiens
# [9] = biological target: T2, Polyadenylate-binding protein 1; assay: PABP1 MLLE–PAM2 interaction inhibitors, dose response, miRNA deadenylation inhibitor project, biochemical, fluorescence polarization, Cy5-PAM2 peptide, secondary (AID 602260); format: functional; settings: read-out: IC50_Mean
# [10] = biological target: T3, Zinc finger protein mex-5 (Caenorhabditis elegans, UniProt Q9XUB2); assay: MEX-5/TCR-2 RNA interaction inhibitors, dose response, biochemical, C. elegans, fluorescence polarization (AID 1960)
# T3 sequence (Q9XUB2 whole entry): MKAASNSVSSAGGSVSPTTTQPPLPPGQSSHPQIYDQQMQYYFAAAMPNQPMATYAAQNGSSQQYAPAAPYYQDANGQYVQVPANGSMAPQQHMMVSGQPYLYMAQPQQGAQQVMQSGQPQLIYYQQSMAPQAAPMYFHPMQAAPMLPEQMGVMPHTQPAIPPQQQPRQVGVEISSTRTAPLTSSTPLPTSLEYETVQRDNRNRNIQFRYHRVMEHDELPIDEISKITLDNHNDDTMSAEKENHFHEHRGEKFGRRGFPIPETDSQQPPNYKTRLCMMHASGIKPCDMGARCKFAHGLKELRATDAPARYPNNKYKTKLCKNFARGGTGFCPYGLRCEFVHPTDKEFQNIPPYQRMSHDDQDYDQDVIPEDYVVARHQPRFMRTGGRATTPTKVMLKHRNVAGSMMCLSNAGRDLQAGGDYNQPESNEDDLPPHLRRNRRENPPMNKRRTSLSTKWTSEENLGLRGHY
# [11] = biological target: T4, RNA-binding protein pos-1 (Caenorhabditis elegans, UniProt G5EF15); assay: inhibitors of POS-1/mex-3 RNA binding, dose response, biochemical, fluorescence polarization (AID 1964);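 further: purified POS-1 fused to maltose binding protein made in E. coli; potency of compounds blocking POS-1 binding to fluorescent RNA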
# T4 sequence (G5EF15 whole entry): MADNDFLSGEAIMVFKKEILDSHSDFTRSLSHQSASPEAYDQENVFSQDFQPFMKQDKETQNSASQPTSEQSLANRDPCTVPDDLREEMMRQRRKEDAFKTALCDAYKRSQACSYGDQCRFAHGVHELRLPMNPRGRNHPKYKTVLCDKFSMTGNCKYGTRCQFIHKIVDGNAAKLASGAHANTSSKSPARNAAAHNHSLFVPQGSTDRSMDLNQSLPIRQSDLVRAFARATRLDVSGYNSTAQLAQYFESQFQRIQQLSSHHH
# [12] = tested on: BJ; assay: cells; format: functional, cell-based; settings: Homo sapiens
# [13] = inhibitors of SNCA 5'UTR-driven reporter translation, confirmation, H4 neuroglioma cells, luminescence (AID 1988); format: functional, cell-based
# [14] = inhibitors of firefly luciferase expression or activity, dose response, H4 neuroglioma cells, luminescence (AID 1990); format: functional, cell-based
# [15] = tested on: BJ; assay: cytotoxicity toward BJ-TERT fibroblasts, dose response, cell-based, RAS-independent, luminescence (AID 1933); format: functional; settings: Homo sapiens
# [16] = Luminescence Cell-Based Dose Response HTS to Identify Inhibitors of 5'UTR Stem-Loop Driven Prion Protein mRNA Translation in H4 Neuroglioblastoma Cells. [Related pubchem assays: 1827 (Project Summary), 1813 (Primary HTS)]; format: functional
# [17] = tested on: BJ; assay: cytotoxicity toward BJ-TERT-LT-ST fibroblasts, dose response, cell-based, RAS-independent, luminescence (AID 1935); format: functional; settings: Homo sapiens;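 further: BJ fibroblasts immortalized with TERT plus LT and ST oncogenes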
# [18] = cytotoxicity toward DRD oncogenic fibroblasts, dose response, cell-based, non-viral oncogenic, luminescence (AID 1934); format: functional; settings: Homo sapiens
# [19] = biological target: T5, Corticotropin-releasing factor receptor 2/Corticotropin-releasing factor-binding protein (Homo sapiens, UniProt P24387+Q13324); assay: Dose Response confirmation of uHTS hits for small molecule antagonists of the CRF-binding protein and CRF-R2 receptor complex.; format: functional; settings: read-out: IC50_Mean
# T5 sequence (Q13324 whole entry): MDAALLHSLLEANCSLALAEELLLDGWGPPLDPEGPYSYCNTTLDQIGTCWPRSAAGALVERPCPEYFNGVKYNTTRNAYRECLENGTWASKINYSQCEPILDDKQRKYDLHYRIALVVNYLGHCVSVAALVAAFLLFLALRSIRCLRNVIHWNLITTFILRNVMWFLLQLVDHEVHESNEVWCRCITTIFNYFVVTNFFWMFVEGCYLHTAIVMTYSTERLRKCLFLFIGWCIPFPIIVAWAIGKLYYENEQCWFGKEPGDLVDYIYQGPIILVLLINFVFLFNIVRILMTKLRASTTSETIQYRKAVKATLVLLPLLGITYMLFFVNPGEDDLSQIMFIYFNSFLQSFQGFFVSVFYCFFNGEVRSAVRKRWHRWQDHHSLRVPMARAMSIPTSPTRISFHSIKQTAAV
# T5 sequence (P24387 whole entry): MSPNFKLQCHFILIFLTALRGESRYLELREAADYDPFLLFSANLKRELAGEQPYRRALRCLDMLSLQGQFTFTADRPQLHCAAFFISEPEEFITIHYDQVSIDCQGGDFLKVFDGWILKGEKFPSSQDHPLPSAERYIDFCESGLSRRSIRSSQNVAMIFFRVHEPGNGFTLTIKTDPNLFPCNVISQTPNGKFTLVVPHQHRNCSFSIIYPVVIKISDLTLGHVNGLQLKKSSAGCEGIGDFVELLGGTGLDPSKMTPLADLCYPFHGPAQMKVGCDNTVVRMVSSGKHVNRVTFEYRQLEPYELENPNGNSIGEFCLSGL
# [20] = biological target: T5, Corticotropin-releasing factor receptor 2/Corticotropin-releasing factor-binding protein; assay: activators of CRF receptor 2 with binding protein – uHTS hits, confirmation (AID 602473); format: functional; settings: read-out: EC50_Mean
# [21] = biological target: T6, Calpain-2 catalytic subunit (Sus scrofa, UniProt P43367); assay: pig calpain II inhibitor potency, dose response, biochemical, fluorogenic peptide substrate (AID 1420); format: functional
# T6 sequence (P43367 whole entry): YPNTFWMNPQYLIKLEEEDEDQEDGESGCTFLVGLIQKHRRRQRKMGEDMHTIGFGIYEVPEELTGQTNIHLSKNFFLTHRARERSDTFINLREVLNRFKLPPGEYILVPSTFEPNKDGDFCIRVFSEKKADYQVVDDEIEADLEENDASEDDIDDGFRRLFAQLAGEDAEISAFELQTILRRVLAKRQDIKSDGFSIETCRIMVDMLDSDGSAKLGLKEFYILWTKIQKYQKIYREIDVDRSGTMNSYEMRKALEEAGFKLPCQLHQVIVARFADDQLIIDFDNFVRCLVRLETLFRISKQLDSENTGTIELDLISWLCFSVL
# Chain of FAD-linked sulfhydryl oxidase ALR (P55789 whole entry): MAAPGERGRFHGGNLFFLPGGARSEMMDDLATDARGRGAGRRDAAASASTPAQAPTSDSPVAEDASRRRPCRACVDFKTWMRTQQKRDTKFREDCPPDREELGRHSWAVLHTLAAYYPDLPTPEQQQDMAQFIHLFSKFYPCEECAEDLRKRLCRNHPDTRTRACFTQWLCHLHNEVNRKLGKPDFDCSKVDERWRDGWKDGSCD
# Chain of Luciferin 4-monooxygenase (P08659 whole entry): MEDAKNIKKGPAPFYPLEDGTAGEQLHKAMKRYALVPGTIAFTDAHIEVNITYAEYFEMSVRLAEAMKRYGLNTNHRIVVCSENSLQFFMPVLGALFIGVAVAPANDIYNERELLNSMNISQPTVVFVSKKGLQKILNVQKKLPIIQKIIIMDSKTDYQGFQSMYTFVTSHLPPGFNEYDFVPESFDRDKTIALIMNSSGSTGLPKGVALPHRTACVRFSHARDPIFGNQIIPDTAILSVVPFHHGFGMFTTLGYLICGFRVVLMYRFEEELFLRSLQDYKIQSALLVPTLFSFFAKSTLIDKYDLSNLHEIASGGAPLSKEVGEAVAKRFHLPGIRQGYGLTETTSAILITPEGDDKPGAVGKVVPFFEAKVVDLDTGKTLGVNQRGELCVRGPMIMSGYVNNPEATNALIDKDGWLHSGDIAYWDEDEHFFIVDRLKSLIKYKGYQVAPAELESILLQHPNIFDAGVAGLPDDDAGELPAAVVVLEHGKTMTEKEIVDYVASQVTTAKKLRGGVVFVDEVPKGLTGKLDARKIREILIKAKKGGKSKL
# T2 sequence (P11940 whole entry): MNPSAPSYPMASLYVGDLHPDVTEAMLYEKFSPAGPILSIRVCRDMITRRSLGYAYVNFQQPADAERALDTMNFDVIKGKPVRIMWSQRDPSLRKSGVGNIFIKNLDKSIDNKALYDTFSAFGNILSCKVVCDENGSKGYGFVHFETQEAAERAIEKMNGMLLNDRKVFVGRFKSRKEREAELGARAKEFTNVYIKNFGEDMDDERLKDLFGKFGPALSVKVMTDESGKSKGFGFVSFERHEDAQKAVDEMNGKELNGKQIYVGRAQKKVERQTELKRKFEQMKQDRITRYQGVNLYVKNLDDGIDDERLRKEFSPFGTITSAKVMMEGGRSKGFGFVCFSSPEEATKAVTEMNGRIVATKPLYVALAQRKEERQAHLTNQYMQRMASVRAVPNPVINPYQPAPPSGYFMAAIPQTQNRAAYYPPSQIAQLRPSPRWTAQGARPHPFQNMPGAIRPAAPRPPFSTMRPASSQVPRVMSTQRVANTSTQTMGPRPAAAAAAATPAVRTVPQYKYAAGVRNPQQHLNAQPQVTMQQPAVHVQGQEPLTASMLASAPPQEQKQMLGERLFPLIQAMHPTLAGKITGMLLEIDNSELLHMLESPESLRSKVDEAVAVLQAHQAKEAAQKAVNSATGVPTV
compound,measurement,setting,value
CCN1CCN(C(=O)c2cc(-c3ccco3)nc3ccccc23)CC1,IC50,[1],> 20 µM (inactive)
COc1ccc(OC)c(Nc2nc(C3CC3)nc3c2nnn3Cc2ccccc2)c1,EC50,[2],> 112 µM (not active)
same,EC50,[3],> 112 µM (not active)
Cc1ccc(S(=O)(=O)Nc2c(C(=O)O)[nH]c3ccccc23)c(C)c1,AC50,[4],12.7 µM (active)
CC(Oc1cc2oc(=O)c3c(c2cc1Cl)CCCC3)C(=O)NCc1ccncc1 (configuration not stated),EC50,[5],> 38 µM (not active)
same,EC50,[6],> 150 µM (inactive)
COc1ccc(N(C(=O)Cn2nnc3ccccc32)C(C(=O)NC(C)(C)C)c2ccc(OC)c(O)c2)cc1 (configuration not stated),EC50,[5],1.62 µM (active)
same,EC50,[6],> 150 µM (inactive)
CC(=O)Nc1ccc(SC[C@H](C)CN2CC[C@H](C(C)(C)C)CCC2=O)cc1,IC50,[7],> 66 µM (inactive)
same,AC50,[4],0.687 µM (active)
same,AC50,[8],1.47 µM (active)
same,IC50,[9],> 66 µM (inactive)
COc1ccccc1C(=O)Nc1ccc2c(c1)CCCN2C(=O)c1ccccc1,EC50,[2],19.1 µM (active)
same,EC50,[3],0.712 µM (active)
CC1=C(C(=O)OCc2ccccc2)C(c2ccccc2[N+](=O)[O-])NC(=O)N1C (configuration not stated),EC50,[10],10.9 µM (active)
same,EC50,[11],> 300 µM (not active)
COCCOC(=O)c1[nH]c2c(c1C)C(=O)CC(c1ccccc1)C2 (configuration not stated),EC50,[12],4.01 µM (active)
same,EC50,[13],4.34 µM (active)
same,EC50,[14],8.73 µM (inconclusive)
same,EC50,[15],2.62 µM (inconclusive)
same,EC50,[16],10.6 µM (active)
same,EC50,[17],1.79 µM (active)
same,EC50,[18],2 µM (active)
COc1ccc(C2C(C(=O)Nc3cc(OC)c(OC)c(OC)c3)c3ccccc3C(=O)N2C)cc1 (configuration not stated),EC50,[12],104 µM (inconclusive)
same,EC50,[15],2.43 µM (inconclusive)
same,EC50,[17],2.56 µM (inconclusive)
same,EC50,[18],2.62 µM (active)
Cc1ccc(S(=O)(=O)CCc2nnc(NC(=O)CCl)s2)cc1C,EC50,[12],14.7 µM (active)
same,EC50,[15],3.06 µM (active)
same,EC50,[17],> 150 µM (not active)
same,EC50,[18],10.5 µM (active)
CS(=O)(=O)N1CCC(Oc2ccccc2C(=O)N2CCN(CC3CC3)CC2)CC1,EC50,[2],> 112 µM (not active)
same,EC50,[3],> 112 µM (not active)
O=C(O)CCC(=O)N1N=C(c2cccs2)CC1c1cn(-c2ccccc2)nc1-c1ccccc1 (configuration not stated),EC50,[10],> 300 µM (not active)
same,EC50,[11],46.5 µM (active)
Cn1cc(S(=O)(=O)N2CCOCC2)cc1C(=O)NCCc1ccccc1,EC50,[2],> 112 µM (not active)
same,EC50,[3],> 112 µM (not active)
CCc1cccc(NC(=O)CSC2=NS(=O)(=O)c3ccccc32)c1,IC50,[1],> 20 µM (inactive)
CCNc1nc(Cl)nc(NC(C)C)n1 [ATRAZINE],EC50,[2],> 112 µM (not active)
same,EC50,[3],> 112 µM (not active)
CC(C)CCOC(=O)C1C(c2ccccc2)C(C(=O)O)C1c1ccccc1 (configuration not stated),EC50,[5],4.96 µM (active)
same,EC50,[6],> 160 µM (inconclusive)
O=C(c1ccco1)N1CCN=C1SCc1ccccc1Cl,AC50,[4],0.41 µM (active)
same,IC50,[19],> 47.1 µM (inactive)
same,EC50,[20],> 53 µM (inactive)
CCc1ccc(N2CC(C(=O)OCC(=O)c3c(N)n(CC(C)C)c(=O)n(C)c3=O)CC2=O)cc1 (configuration not stated),EC50,[2],> 112 µM (not active)
same,EC50,[3],> 112 µM (not active)
CCOC(=O)N1CCN(C(=O)Cc2ccc(-n3c(=S)[nH]c4ccccc4c3=O)cc2)CC1,IC50,[1],> 20 µM (inactive)
O=C(CCS(=O)(=O)Cc1ccccc1)Nc1nnc(C(F)(F)F)s1,EC50,[5],0.741 µM (active)
same,EC50,[6],> 160 µM (inactive)
COc1cccc2cc(C(C)N(CCCN3CCOCC3)C(=O)Nc3ccccc3)oc12 (configuration not stated),EC50,[2],> 112 µM (not active)
same,EC50,[3],> 112 µM (not active)
CC1CCCC(NC(=O)CSc2ncnc3ccccc23)C1C (configuration not stated),IC50,[1],> 20 µM (inactive)
Cn1c(=O)[nH]c(=O)c2c1nc(N1CCCCCC1)n2CC(N)=O,EC50,[2],> 112 µM (not active)
same,EC50,[3],> 112 µM (not active)
N#CCC(=O)Nc1ccc(C(=O)NCc2ccccn2)cc1,AC50,[4],2.41 µM (active)
CC(C)C[C@@H]1CN=C(N)N1C[C@@H]1CCCN1C[C@H](C)N1C[C@@H](Cc2ccccc2)N(CCc2ccc(Cl)c(Cl)c2)C1=N,IC50,[1],> 20 µM (inactive)
CN(C)CCCSc1nc2ccccc2s1,AC50,[4],0.171 µM (active)
CC1(C)Cc2ccccc2C(N/N=C/c2ccc([N+](=O)[O-])cc2)=N1,EC50,[5],> 38 µM (not active)
same,EC50,[6],> 150 µM (inactive)
COc1ccc(N2CCN(C(c3cccs3)C(C)NS(C)(=O)=O)CC2)cc1 (configuration not stated),AC50,[4],1.67 µM (active)
same,IC50,[21],5.8 µM (not active)
